Laboratory results published in patent US4657927A, “Malonato platinum compounds” (Research Corporation, priority 1983, dated 1987).

Tested on: Sarcoma 180
Assay: Antitumor activity, solid sarcoma 180 tumor, T/C of tumor weights at day 10 (Table I)
Format: in vivo, female Swiss white mice
Experimental: The compounds of the invention were tested for antitumor activity, i.e., for sensitivity to a planar dsp^2 platinum(II) coordination compound or an octahedral d^2 sp^3 platinum(IV) coordination compound using our standard screening tumor, solid sarcoma 180 tumor in female Swiss white mice, following standard protocols for this testing as set by the National Cancer Institute. (Cancer Chemotherapy Rep., 25 (1962)).
For these tests an S 180 tumor taken from a sacrificed mouse was disected free of superfluous tissue and cut under sterile conditions into approximately 10 milligram size pieces. These tissue pieces were then implanted by trocar in the left axillary region, subcutaneously, in new mice. The mice were, on the average, approximately four weeks old and weighed 18-20 grams. Taking day 0 as the day of implant, the animals were sacrificed on day 10. The tumors were excised and weighed and the ratio of the weights of the tumors in mice in the treated animals to the control set of animals was obtained. This ratio, multiplied by 100, is given as the T/C ratio in Table I.
For the first set of tests the coordination compound was freshly dissolved in sterile distilled water and injected intraperitoneally on day 1 into each of the test mice. The volume of the injection was usually 1/2 ml. In some cases, in order to get an active dose into the animal where the chemical was not soluble in this amount of solvent, a fine dispersion was prepared of the dose needed for the test. Thus, some of our test results were obtained on animals where a slurry of the compound was injected. These are so noted in Table I below. In addition, for some of the compounds, there was injected about 1 ml of solution, either in one single injection, or in 2 injections given a few hours apart of 1/2 ml each. These injections were initially given in 4 different dose levels for each new compound with 6 mice in each dose level. The tests covered a dose range from a low ineffective dose, to an upper dose level which produced some deaths within the time period of the experiment.

[1] = 20 mg/kg, single i.p. injection day 1
[2] = 40 mg/kg, single i.p. injection day 1
[3] = 60 mg/kg, single i.p. injection day 1
[4] = 80 mg/kg, single i.p. injection day 1
[5] = 100 mg/kg, single i.p. injection day 1
[6] = 120 mg/kg, single i.p. injection day 1
[7] = 160 mg/kg, single i.p. injection day 1
[8] = 30 mg/kg, single i.p. injection day 1, solution in H2O
[9] = 40 mg/kg, single i.p. injection day 1, solution in H2O
[10] = 50 mg/kg, single i.p. injection day 1, solution in H2O
[11] = 60 mg/kg, single i.p. injection day 1, solution in H2O
[12] = 70 mg/kg, single i.p. injection day 1, solution in H2O
[13] = 80 mg/kg, single i.p. injection day 1, solution in H2O
[14] = dose level 40 (unit not given), single i.p. injection day 1
[15] = dose level 60 (unit not given), single i.p. injection day 1
[16] = dose level 80 (unit not given), single i.p. injection day 1
[17] = dose level 90 (unit not given), single i.p. injection day 1
[18] = dose level 100 (unit not given), single i.p. injection day 1
[19] = dose level 110 (unit not given), single i.p. injection day 1
[20] = dose level 120 (unit not given), single i.p. injection day 1
[21] = dose level 45 (unit not given), single i.p. injection day 1
[22] = dose level 75 (unit not given), single i.p. injection day 1
[23] = dose level 20 (unit not given), single i.p. injection day 1
[24] = 140 mg/kg, single i.p. injection day 1
[25] = 180 mg/kg, single i.p. injection day 1
[26] = 90 mg/kg, single i.p. injection day 1, solution in H2O

N.N.O=C([O-])C1(C(=O)[O-])CCC1.[Pt+4] [1,1-cyclobutanedicarboxylate diammineplatinum (II)]
No. of Deaths [1]: 0 | T/C [1]: 71 | No. of Deaths [2]: 0 | T/C [2]: 60 | No. of Deaths [3]: 0 | T/C [3]: 38 | No. of Deaths [4]: 0 | T/C [4]: 42 | No. of Deaths [5]: 0 | T/C [5]: 69 | No. of Deaths [6]: 0 | T/C [6]: 18 | No. of Deaths [7]: 4 | T/C [7]: 62

CC1C(=O)[O][Pt]([NH2])([NH2])[O]C1=O [Methylmalonatodiammineplatinum (II)]
No. of Deaths [8]: 0 | T/C [8]: 39 | No. of Deaths [9]: 0 | T/C [9]: 26 | No. of Deaths [10]: 0 | T/C [10]: 35 | No. of Deaths [11]: 0 | T/C [11]: 6 | No. of Deaths [12]: 3/6 | No. of Deaths [13]: 6/6

CCC(C(=O)[O-])C(=O)[O-].N.N.[Pt+2] [ethylmalonatodiammineplatinum (II)]
No. of Deaths [8]: 0 | T/C [8]: 57 | No. of Deaths [9]: 0 | T/C [9]: 43 | No. of Deaths [10]: 0 | T/C [10]: 47 | No. of Deaths [11]: 0 | T/C [11]: 39 | No. of Deaths [12]: 0 | T/C [12]: 17 | No. of Deaths [13]: 0 | T/C [13]: 16

CCC1C(=O)[O][Pt]2([NH]CC[NH]2)[O]C1=O [ethylmalonatoethylenediamineplatinum (II)]
No. of Deaths [14]: 0 | T/C [14]: 72 | No. of Deaths [15]: 0 | T/C [15]: 81 | No. of Deaths [16]: 0 | T/C [16]: 79 | No. of Deaths [17]: 0 | T/C [17]: 47 | No. of Deaths [18]: 1 | T/C [18]: 55 | No. of Deaths [19]: 0 | T/C [19]: 41 | No. of Deaths [20]: 0 | T/C [20]: 58

CC(N)CN.O=C([O-])CC(=O)[O-].[Pt+2] [malonato-1,2 propylenediamineplatinum (II)]
No. of Deaths [21]: 0 | T/C [21]: 50 | No. of Deaths [15]: 1 | T/C [15]: 9 | No. of Deaths [22]: 3 | T/C [22]: 16 | No. of Deaths [17]: 5

NCCCN.O=C([O-])CC(=O)[O-].[Pt+2] [malonato-1,3 propylenediamineplatinum (II)]
No. of Deaths [23]: 0 | T/C [23]: 69 | No. of Deaths [14]: 0 | T/C [14]: 79 | No. of Deaths [15]: 0 | T/C [15]: 21 | No. of Deaths [16]: 1 | T/C [16]: 35

CN.CN.O=C([O-])CC(=O)[O-].[Pt+2] [malonatobis (methylamine) platinum (II)]
No. of Deaths [4]: 0 | T/C [4]: 58 | No. of Deaths [5]: 0 | T/C [5]: 53 | No. of Deaths [6]: 0 | T/C [6]: 28 | No. of Deaths [24]: 0 | T/C [24]: 25 | No. of Deaths [7]: 1 | T/C [7]: 17 | No. of Deaths [25]: 1 | T/C [25]: 19

CC1C(=O)[O][Pt]2([NH]CC[NH]2)[O]C1=O [methylmalonatoethylenediamineplatinum(II)]
No. of Deaths [8]: 0 | T/C [8]: 78 | No. of Deaths [9]: 0 | T/C [9]: 80 | No. of Deaths [10]: 0 | T/C [10]: 51 | No. of Deaths [11]: 0 | T/C [11]: 26 | No. of Deaths [12]: 1 | T/C [12]: 20 | No. of Deaths [26]: 1 | T/C [26]: 4
